One molecule from doi:10.1101/2022.07.06.498982v1 (biorxiv, 2022) can be followed below.

Test [1] has as its target soluble recombinant human TLR4 (hTLR4) (Homo sapiens, UniProt O00206). Nature of the test: biochemical.
For test [2], the target named is soluble recombinant mouse TLR4 (mTLR4) (Mus musculus, UniProt Q9QUK6). Briefly: biochemical.

The structures appear in SMILES notation.

As a reminder, the Kd is the constant that tells how readily two partners part at equilibrium.

soluble recombinant human TLR4 (hTLR4), sequence (O00206 24-631 limits assumed): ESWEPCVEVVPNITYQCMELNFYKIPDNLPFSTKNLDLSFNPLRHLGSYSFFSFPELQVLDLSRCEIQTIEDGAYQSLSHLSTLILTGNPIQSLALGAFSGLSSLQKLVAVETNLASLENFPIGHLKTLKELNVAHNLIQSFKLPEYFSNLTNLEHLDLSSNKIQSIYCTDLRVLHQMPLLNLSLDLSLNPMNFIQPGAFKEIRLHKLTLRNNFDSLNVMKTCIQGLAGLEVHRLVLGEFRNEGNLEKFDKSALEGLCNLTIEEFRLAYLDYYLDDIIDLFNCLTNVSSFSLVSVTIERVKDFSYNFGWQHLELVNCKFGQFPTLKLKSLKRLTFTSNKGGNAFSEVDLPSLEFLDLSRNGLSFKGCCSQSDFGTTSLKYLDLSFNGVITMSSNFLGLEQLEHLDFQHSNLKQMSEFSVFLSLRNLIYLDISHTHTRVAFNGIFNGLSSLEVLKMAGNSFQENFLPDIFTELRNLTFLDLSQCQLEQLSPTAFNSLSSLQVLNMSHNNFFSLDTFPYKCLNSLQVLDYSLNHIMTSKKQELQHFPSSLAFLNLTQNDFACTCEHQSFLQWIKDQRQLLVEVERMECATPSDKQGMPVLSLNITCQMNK
soluble recombinant mouse TLR4 (mTLR4), sequence (Q9QUK6 26-638 limits assumed): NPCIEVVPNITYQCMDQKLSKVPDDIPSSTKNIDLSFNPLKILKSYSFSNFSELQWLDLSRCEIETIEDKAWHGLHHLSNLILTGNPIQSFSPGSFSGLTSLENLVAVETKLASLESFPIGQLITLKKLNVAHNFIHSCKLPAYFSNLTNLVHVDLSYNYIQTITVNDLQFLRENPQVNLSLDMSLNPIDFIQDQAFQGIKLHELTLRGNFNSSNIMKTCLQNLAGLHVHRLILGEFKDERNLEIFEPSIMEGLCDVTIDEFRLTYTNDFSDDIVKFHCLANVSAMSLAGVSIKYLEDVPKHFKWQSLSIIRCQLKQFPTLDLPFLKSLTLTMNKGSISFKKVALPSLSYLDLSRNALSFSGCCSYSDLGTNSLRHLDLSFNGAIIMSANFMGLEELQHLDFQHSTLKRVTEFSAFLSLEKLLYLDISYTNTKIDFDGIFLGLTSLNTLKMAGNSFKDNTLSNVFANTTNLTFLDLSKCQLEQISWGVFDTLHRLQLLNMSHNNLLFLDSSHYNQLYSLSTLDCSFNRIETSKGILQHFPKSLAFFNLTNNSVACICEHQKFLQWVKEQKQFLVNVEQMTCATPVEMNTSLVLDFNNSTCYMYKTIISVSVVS

For the molecule `[NH2][Pt]([NH2])([Cl])[Cl]` [cisplatin], the Kd in test [1] was 100 µM; in test [2], 134 µM.
